# Reference: PMC11982978, “Cancer hotspot mutations rewire ERK2 specificity by selective exclusion of docking interactions” (The Journal of Biological Chemistry, 2025)
# “And” between values parts separate entries of the source, which are not always exact repeats. Equal entries are not always repeated. Where two headings read alike, the source gives them in different places. Peptide text beside a SMILES is read from it.
# What was measured:
# WT ERK2 [1] = assay: Y2H D-site library screen, WT ERK2; type: cell-based, rat; parameters: key: ES = slope of ln(Ft/F0) vs number of yeast population doublings; details: mutant ES is the combined average ES from the D319N and E320K screens
# Description: To examine how cancer-associated CD site mutations affect the scope of ERK2 docking interactions, we adopted a Y2H strategy that we previously applied to define the D-site interactome of WT ERK2 ([15]). This system reports on interactions between ERK2 and a fragment of its substrate ELK1 that harbors a docking site essential for binding (Fig. 1C). The system thus evaluates the binding of potential sequences by substituting them for the native ELK1 docking site. We transformed Y2H strains with a bait plasmid expressing the Gal4 DNA-binding domain (DBD) fused to WT or CD mutant forms of rat ERK2 (R133K, D319N or E320K, equivalent respectively to human R135K, D321N and E322K), along with a prey plasmid expressing Gal4 activation domain (AD) fused to the ELK1 fragment harboring various docking site sequences. We then assayed these strains for growth on solid media under non-selective (+His) and selective conditions (−His) to detect interactions (Fig. 1D).
# We previously used the Y2H system to screen WT ERK2 against a pooled library of 11,756 ELK1 variants incorporating potential docking sites from the human proteome ([15]). To identify interacting sequences either gained or lost upon ERK2 CD site mutation, we screened the same library against ERK2^D319N and ERK2^E320K. Yeast expressing ERK2 mutant bait plasmids were transformed with the ELK1 library pool and subjected to competitive growth under selective (−His) and non-selective conditions (+His) in parallel. Cultures were sampled periodically over ∼7 population doublings. The DNA sequence encoding the variable docking site region was PCR amplified and analyzed by next-generation sequencing (Fig. 2A, Dataset S1). The change in sequence abundance over time was fitted to an exponential function to assign an enrichment score (ES) to each docking site, where a higher ES indicates a greater increase in sequence abundance as the population grows. A significant enrichment of docking site sequences was observed only under selective conditions (Figs. 2B, S1). For each mutant, we observed generally good reproducibility across three independently conducted screens albeit with some sequences enriched in only a single replicate (Fig. S2, A and B). Average ES scores for the E320K and D319N mutant screens were better correlated with each other (R = 0.83) than were average ES scores for either mutant compared to WT ERK2 (R = 0.67 for WT versus D319N, R = 0.63 for WT versus E320K) (Fig. S2C).
# To compare sequences selected by CD mutants with those selected by WT ERK2, we defined those sequences with an ES equal to or higher than three standard deviations from the mean (Z > 3) as hits. Using this cutoff, we obtained 121, 127, and 153 hits sequences from the WT, D319N, and E320K screens, respectively (Fig. 2C, Dataset S2).
# Yeast harboring pGBT9-ERK2^E320K or pGBT9-ERK2^D319N were transformed with the pGADGH-ELK1 D-site library plasmid pool. Transformants (10–40 colonies per library component) were suspended in SD-Leu-Trp media, diluted to an OD600 of 0.1, and cultured in a shaking incubator at 30 °C to an OD600 of 1.0. The resulting culture was used to initiate a competitive selection screen. Cell growth, sample collection and data analysis were performed exactly as described previously for WT ERK2 ([15]). The frequency (F) of each D-site sequence at a given time point (t) was calculated by dividing the number of reads by the total read count for all sequences. For each sequence, a plot of ln(Ft/F0) as a function of the number of yeast population doublings was fit to a line, and the enrichment score (ES) for that sequence was defined as the slope of this line. Illumina sequencing reads, calculated ES, and Z scores for each screen are provided in Dataset S1.
# WT ERK2 [2] = details: selective conditions (-His); hits Z > 3; average of three screens; cited from earlier work
# Description: Supplement mmc2.xlsx, sheet "WT Hits" | column: Z-score
# ERK2 WT = biological target: T1, ERK2 WT (Mus musculus, UniProt P63085); assay: Competitive peptide kinase assay (D-peptide inhibition), ERK2 WT; type: biochemical; details: 10 nM ERK2, 10 μM ATP
# T1 construct: His6; made in house; host or cells: E. coli BL21(DE3), co-expressed with GST-MEK1ΔN3
# Description: (§1) We determined relative binding affinities for D-peptides from their potency as competitive inhibitors of WT or mutant ERK2 activity on a D-site-dependent reporter substrate peptide (Table S1, Fig. 3A, S3).
# (§2) Competitive peptide kinase assays were performed with a D-site dependent MAPK reporter substrate peptide (AssayQuant Technologies Inc, #AQT0376) as we reported previously ([15]). Briefly, 5 μM of reporter peptide was mixed with various concentrations of D-peptides in reaction buffer (54 mM HEPES [pH 7.4], 1.2 mM DTT, 0.01% Brij-35, 1% glycerol, 0.2 mg/ml BSA, and 10 mM MgCl2). […] Phosphorylation of the reporter peptide was measured by fluorescence (λex 360 nm, λem 485 nm) in 90 s intervals over 21 min in a Spectra M5 plate reader. Rates were calculated from the linear portion of the reaction progress curve, and data were normalized to maximum (samples lacking competitor peptide) and minimum (control reactions lacking kinase) values. Normalized rates were plotted against D-peptide concentration and fitted into a sigmoidal dose-response curve to determine the IC50 values using GraphPad Prism (Version 9.3.0).
# ERK2 R133K = biological target: T2, ERK2 R133K (Mus musculus, UniProt P63085, R133K); assay: Competitive peptide kinase assay (D-peptide inhibition), ERK2 R133K; type: biochemical; details: 10 nM ERK2, 10 μM ATP
# T2 construct: His6; made in house; host or cells: E. coli BL21(DE3), co-expressed with GST-MEK1ΔN3
# Description: as §1, §2
# ERK2 E322K = biological target: T3, ERK2 E322K (Mus musculus, UniProt P63085, E320K); assay: Competitive peptide kinase assay (D-peptide inhibition), ERK2 E322K; type: biochemical; details: Table 2, 5 μM reporter peptide, 10 nM ERK2, 10 μM ATP, mean of three independent replicates, read-out: IC50, ERK2 E322 K
# T3 construct: His6; made in house; host or cells: E. coli BL21(DE3), co-expressed with GST-MEK1ΔN3
# Description: as §1, §2
# ERK2 D319N = biological target: T4, ERK2 D319N (Mus musculus, UniProt P63085, D319N); assay: Competitive peptide kinase assay (D-peptide inhibition), ERK2 D319N; type: biochemical; details: Table S1, 5 μM reporter peptide, 10 nM ERK2, 10 μM ATP, three independent experiments
# T4 construct: His6; made in house; host or cells: E. coli BL21(DE3), co-expressed with GST-MEK1ΔN3
# Description: as §1, §2
# [3] = Table 2, 5 μM D-site dependent reporter peptide, pH 7.4, fluorescence, mean of three independent replicates
# [4] = Table S1, 5 μM reporter peptide, three independent experiments
# T1 sequence (P63085 whole entry): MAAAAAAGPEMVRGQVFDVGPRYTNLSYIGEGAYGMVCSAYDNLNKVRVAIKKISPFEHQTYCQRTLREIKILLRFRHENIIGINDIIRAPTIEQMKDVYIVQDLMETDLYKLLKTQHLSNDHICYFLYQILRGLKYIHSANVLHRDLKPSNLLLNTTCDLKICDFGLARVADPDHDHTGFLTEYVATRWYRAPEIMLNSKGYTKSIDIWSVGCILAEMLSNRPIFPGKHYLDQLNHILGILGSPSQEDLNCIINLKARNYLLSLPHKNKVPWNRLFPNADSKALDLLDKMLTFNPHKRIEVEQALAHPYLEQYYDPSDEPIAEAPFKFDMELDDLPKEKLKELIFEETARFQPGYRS
# T3 sequence (P63085 whole entry E320K): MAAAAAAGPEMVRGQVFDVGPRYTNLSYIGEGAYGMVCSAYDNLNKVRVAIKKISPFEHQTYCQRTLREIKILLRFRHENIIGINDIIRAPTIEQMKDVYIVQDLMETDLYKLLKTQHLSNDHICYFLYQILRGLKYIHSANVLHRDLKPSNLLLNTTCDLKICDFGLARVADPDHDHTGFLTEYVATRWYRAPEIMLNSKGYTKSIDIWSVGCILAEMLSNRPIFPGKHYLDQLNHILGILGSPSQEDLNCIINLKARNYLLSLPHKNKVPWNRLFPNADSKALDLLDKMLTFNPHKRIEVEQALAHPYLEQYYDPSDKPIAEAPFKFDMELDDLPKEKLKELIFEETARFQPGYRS
# T2 sequence (P63085 whole entry R133K): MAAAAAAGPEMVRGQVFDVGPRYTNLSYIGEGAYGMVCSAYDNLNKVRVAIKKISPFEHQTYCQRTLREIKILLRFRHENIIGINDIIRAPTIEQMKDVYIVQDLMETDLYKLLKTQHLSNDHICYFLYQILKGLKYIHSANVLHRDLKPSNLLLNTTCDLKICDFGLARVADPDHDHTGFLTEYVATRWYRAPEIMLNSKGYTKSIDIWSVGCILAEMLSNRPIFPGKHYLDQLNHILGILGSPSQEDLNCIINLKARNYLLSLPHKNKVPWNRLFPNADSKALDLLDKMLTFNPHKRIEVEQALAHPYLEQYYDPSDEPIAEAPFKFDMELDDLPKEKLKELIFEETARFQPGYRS
# T4 sequence (P63085 whole entry D319N): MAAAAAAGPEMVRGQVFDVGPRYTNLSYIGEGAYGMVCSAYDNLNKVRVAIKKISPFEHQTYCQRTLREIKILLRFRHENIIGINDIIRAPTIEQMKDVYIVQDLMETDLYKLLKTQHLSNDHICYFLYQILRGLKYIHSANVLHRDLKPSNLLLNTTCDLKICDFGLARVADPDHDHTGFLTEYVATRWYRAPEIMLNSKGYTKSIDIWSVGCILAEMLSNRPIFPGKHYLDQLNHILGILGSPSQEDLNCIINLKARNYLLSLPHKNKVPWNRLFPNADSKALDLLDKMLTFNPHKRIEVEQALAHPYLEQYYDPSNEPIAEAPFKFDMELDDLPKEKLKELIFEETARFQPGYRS
Compound,WT ES - mutant ES (WT ERK2 [1]),"Z-score (ES) of hit sequences, WT ERK2 Y2H screen (WT ERK2 [2])",other results
"RRMRRAGQALKLPS [HAS3, D-site 14-mer in ELK1 Y2H prey]",0.310,7.82,–
"ILLRRSLEAIELGL [KLC2, D-site 14-mer in ELK1 Y2H prey]",0.282,5.90,–
CC[C@H](C)[C@H](NC(=O)[C@H](C)NC(=O)[C@@H](N)Cc1ccc(O)cc1)C(=O)N[C@@H](CCCNC(=N)N)C(=O)N[C@@H](C)C(=O)N[C@@H](CCCNC(=N)N)C(=O)N[C@@H](CCCNC(=N)N)C(=O)NCC(=O)NCC(=O)N[C@@H](CC(C)C)C(=O)N1CCC[C@H]1C(=O)N[C@@H](CCCNC(=N)N)C(=O)N[C@@H](CC(C)C)C(=O)N[C@@H](C)C(=O)N[C@H](C(=O)N[C@@H](CO)C(=O)N[C@@H](CC(=O)O)C(=O)O)C(C)C [ISG20 peptide G7+] (H-YAIRARRGGLPRLAVSD-OH),–,–,"IC50 (ERK2 WT; [3]): 75 µM; IC50 (ERK2 R133K; Table 2, 5 μM reporter peptide, mean of three independent replicates, read-out: IC50, ERK2 R133 K): 170 µM; IC50 (ERK2 E322K): 210 µM"
"RLRNRNCLELKIKD [ANKRD12, D-site 14-mer in ELK1 Y2H prey]",0.443,10.11,–
CC(C)C[C@H](NC(=O)[C@H](C)NC(=O)[C@@H](N)Cc1ccc(O)cc1)C(=O)NCC(=O)N[C@@H](CO)C(=O)N[C@@H](CCCNC(=N)N)C(=O)N[C@@H](CCCNC(=N)N)C(=O)NCC(=O)N[C@@H](CCCNC(=N)N)C(=O)N[C@@H](CO)C(=O)N[C@@H](CO)C(=O)N[C@@H](CC(C)C)C(=O)N[C@@H](CO)C(=O)N[C@@H](CC(C)C)C(=O)N[C@@H](C)C(=O)N[C@@H](CCCCN)C(=O)O [ARHGEF2],–,–,IC50 (ERK2 D319N): 300 µM
"RLLWRRLKPLILGK [ABCA7, D-site 14-mer in ELK1 Y2H prey]",0.266,5.86,–
"LYKRRKESILTIQK [ASPM, D-site 14-mer, start residue 1508, in ELK1 Y2H prey]",0.329,7.80 and 6.10,–
"LWTRRRSERIFLHD [TNRC18, D-site 14-mer in ELK1 Y2H prey]",0.332,7.78,–
"IRARRGLPRLAVSD [ISG20, D-site 14-mer in ELK1 Y2H prey]",0.761,14.42,–
"GSRCARIFRLVLQK [POLR3C, D-site 14-mer in ELK1 Y2H prey]",0.285,6.39,–
"PLFLRRKPVLSFQG [LIG3, D-site 14-mer in ELK1 Y2H prey]",0.487,10.87,–
"CLSWKRMAGIFFLP [GLB1L3, D-site 14-mer in ELK1 Y2H prey]",0.781,14.12,–
CC[C@H](C)[C@H](NC(=O)[C@H](C)NC(=O)[C@@H](N)Cc1ccc(O)cc1)C(=O)N[C@@H](CCCNC(=N)N)C(=O)N[C@@H](C)C(=O)N[C@@H](C)C(=O)N[C@@H](CCCNC(=N)N)C(=O)NCC(=O)N[C@@H](CC(C)C)C(=O)N1CCC[C@H]1C(=O)N[C@@H](CCCNC(=N)N)C(=O)N[C@@H](CC(C)C)C(=O)N[C@@H](C)C(=O)N[C@H](C(=O)N[C@@H](CO)C(=O)N[C@@H](CC(=O)O)C(=O)O)C(C)C [ISG20 peptide R4A],–,–,IC50 (ERK2 E322K): 300 µM
"RRRGRPPKRIHISQ [BAZ1A, D-site 14-mer in ELK1 Y2H prey]",0.150,4.55,–
"HLSRHKIIHIGIHT [ZNF493, D-site 14-mer in ELK1 Y2H prey]",0.221,5.90,–
CC[C@H](C)[C@H](NC(=O)[C@H](C)NC(=O)[C@@H](N)Cc1ccc(O)cc1)C(=O)N[C@@H](CCCNC(=N)N)C(=O)N[C@@H](C)C(=O)N[C@@H](CCCNC(=N)N)C(=O)N[C@@H](C)C(=O)NCC(=O)N[C@@H](CC(C)C)C(=O)N1CCC[C@H]1C(=O)N[C@@H](CCCNC(=N)N)C(=O)N[C@@H](CC(C)C)C(=O)N[C@@H](C)C(=O)N[C@H](C(=O)N[C@@H](CO)C(=O)N[C@@H](CC(=O)O)C(=O)O)C(C)C [ISG20 peptide R5A],–,–,IC50 (ERK2 E322K): 400 µM
CSCC[C@H](NC(=O)[C@H](CC(C)C)NC(=O)[C@H](C)NC(=O)[C@@H](N)Cc1ccc(O)cc1)C(=O)N[C@@H](CCC(=O)O)C(=O)N[C@@H](CCCNC(=N)N)C(=O)N[C@@H](CCCNC(=N)N)C(=O)N[C@@H](CCCNC(=N)N)C(=O)N[C@@H](CC(C)C)C(=O)N[C@@H](CC(N)=O)C(=O)N[C@@H](CCC(N)=O)C(=O)N[C@@H](CC(C)C)C(=O)N[C@@H](CC(C)C)C(=O)N[C@@H](CC(C)C)C(=O)N1CCC[C@H]1C(=O)N[C@@H](CC(C)C)C(=O)O [ANAPC5] (H-YALMERRRLNQLLLPL-OH),–,–,IC50 (ERK2 WT; [4]): 32 µM; IC50 (ERK2 R133K; [4]): 340 µM
"TRHERNYTKVNFCK [ZNF675, D-site 14-mer in ELK1 Y2H prey]",0.359,7.60,–
CC[C@H](C)[C@H](NC(=O)[C@H](C)NC(=O)[C@@H](N)Cc1ccc(O)cc1)C(=O)NCC(=O)N[C@@H](CCCNC(=N)N)C(=O)N[C@@H](C)C(=O)N[C@@H](CCCNC(=N)N)C(=O)N[C@@H](CCCNC(=N)N)C(=O)NCC(=O)N[C@@H](CC(C)C)C(=O)N1CCC[C@H]1C(=O)N[C@@H](CCCNC(=N)N)C(=O)N[C@@H](CC(C)C)C(=O)N[C@@H](C)C(=O)N[C@H](C(=O)N[C@@H](CO)C(=O)N[C@@H](CC(=O)O)C(=O)O)C(C)C [ISG20 peptide G2+] (H-YAIGRARRGLPRLAVSD-OH),–,–,IC50 (ERK2 WT; [3]): 120 µM; IC50 (ERK2 E322K): 170 µM
"RSKLRKPKPVPLRK [TACC1, D-site 14-mer in ELK1 Y2H prey]",0.162,5.18,–
